Results on 27 molecules are retold here after ChEMBL document CHEMBL3098036, “Sulfonamide inhibition studies of the δ-carbonic anhydrase from the diatom Thalassiosira weissflogii” (Bioorg Med Chem Lett, 2014).

The target of this assay is T1, Delta carbonic anhydrase (Conticribra weissflogii, UniProt Q5U9J1).
T1 sequence (Q5U9J1 whole entry): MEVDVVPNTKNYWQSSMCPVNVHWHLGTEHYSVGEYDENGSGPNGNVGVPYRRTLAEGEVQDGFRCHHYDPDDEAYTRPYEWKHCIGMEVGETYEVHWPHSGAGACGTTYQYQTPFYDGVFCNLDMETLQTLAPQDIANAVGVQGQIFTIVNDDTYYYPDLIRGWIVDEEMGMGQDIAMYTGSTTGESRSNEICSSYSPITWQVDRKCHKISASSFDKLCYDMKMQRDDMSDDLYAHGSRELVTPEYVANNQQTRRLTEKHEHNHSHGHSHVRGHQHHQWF
A word on the Ki: it is the equilibrium dissociation constant of an inhibitor or competing ligand from its target. On to `NS(=O)(=O)Cc1noc2ccccc12` [ZONISAMIDE], for which the Ki is 0.404 µM.
In the case of `Nc1ccc(S(=O)(=O)NCCc2ccc(S(N)(=O)=O)cc2)cc1`, affinity was put at a Ki of 0.862 µM.
In turn, `O=C1NS(=O)(=O)c2ccccc21` [SACCHARIN] displayed a Ki of 9.2 µM.
To `CC1(C)O[C@@H]2[C@@H](CO[C@@]3(COS(N)(=O)=O)OC(C)(C)O[C@@H]23)O1` [TOPIRAMATE] belongs 0.392 µM; to `Nc1ccc(S(=O)(=O)Nc2ccc(S(N)(=O)=O)cc2)cc1`, 3.74 µM.
The figure for `Nc1ccc(S(=O)(=O)Nc2nnc(S(N)(=O)=O)s2)cc1` is 12.3 µM; for `NS(=O)(=O)c1cccc(S(N)(=O)=O)c1` it is 0.424 µM.
For the molecule `Nc1ccc(S(N)(=O)=O)cc1Br`, the Ki stood at 0.0946 µM.
As to `NS(=O)(=O)c1ccc(CO)cc1`, the Ki is 15.2 µM.
With `Nc1nccc(Nc2ccc(S(N)(=O)=O)cc2)n1`, the affinity corresponds to a Ki of 0.615 µM.
In turn, `NS(=O)(=O)c1ccc(CCO)cc1` had a Ki of 4.7 µM.
Consider `NS(=O)(=O)c1ccc(S(=O)(=O)Nc2cccc3c(Cl)c[nH]c23)cc1`, for which the affinity, expressed as Ki, was 0.375 µM.
Molecule `CCN[C@H]1CN(CCCOC)S(=O)(=O)c2sc(S(N)(=O)=O)cc21` [BRINZOLAMIDE] yielded a Ki of 0.118 µM.
To `NCc1ccc(S(N)(=O)=O)cc1` [MAFENIDE] belongs 0.424 µM; to `Nc1cccc(S(N)(=O)=O)c1`, 0.295 µM; to `NS(=O)(=O)c1ccc(C(=O)O)cc1` [CARZENIDE], 0.871 µM.
`CC(=O)/N=c1/sc(S(N)(=O)=O)nn1C` [METHAZOLAMIDE] had a Ki of 0.17 µM.
Molecule `Cn1nc(S(N)(=O)=O)sc1=N` had a Ki of 5.53 µM.
As to `NS(=O)(=O)c1nnc(NS(=O)(=O)c2ccccc2)s1` [BENZOLAMIDE], the Ki came out at 0.394 µM.
`Nc1ccc(S(=O)(=O)NCc2ccc(S(N)(=O)=O)cc2)cc1` yielded a Ki of 0.897 µM.
`Cc1ccc(S(N)(=O)=O)cc1` [P-TOLUENESULFONAMIDE] displayed a Ki of 0.424 µM.
To `Nc1ccc(S(N)(=O)=O)cc1Cl` belongs 0.167 µM.
In the case of `NS(=O)(=O)c1cc(Cl)cc(Cl)c1O`, the Ki was 0.762 µM.
In the case of `Nc1nnc(S(N)(=O)=O)s1`, the Ki is 10.6 µM.
Molecule `NS(=O)(=O)c1ccc(CCNS(=O)(=O)c2ccc([N+](=O)[O-])cc2CO)cc1` returned a Ki of 7.88 µM.
Take `Cc1ccc(-c2cc(C(F)(F)F)nn2-c2ccc(S(N)(=O)=O)cc2)cc1` [CELECOXIB]: the affinity corresponds to a Ki of 0.265 µM.
For the molecule `NS(=O)(=O)c1cc(Cl)c(Cl)c(S(N)(=O)=O)c1` [DICHLORPHENAMIDE], the Ki was 0.458 µM.
